# System: adult patients (aged 18-64 years) with TRD
# Assay: Measure-based increased blood pressure (abnormal elevation in BP)
# Type: in vivo, human
# Procedure: Vital signs, the Clinician-Administered Dissociative States Scale (CADSS), and the Modified Observer's Assessment of Alertness/Sedation (MOAA/S) were assessed at baseline and all treatment sessions (predose, and at 40 minutes, 1 hour [vital signs only unless spontaneously reported by the patient], and 1.5 hours postdose). Routine blood pressure (BP) readings were conducted at each treatment session, with elevations reported as AEs based on the clinician's judgement. The CADSS assessed treatment-emergent dissociative symptoms and consists of 23 questions, each coded on a 5-point scale (0=not at all, 1-mild, 2-moderate, 3=severe, 4-extreme), yielding a total score 0-92.11 A CADSS total score >4 indicated the presence of dissociative symptoms. The MOAA/S assessed treatment-emergent sedation: scores range from (=no response to painful stimulus to 5=readily responds to name spoken in normal tone. Any decrease in MOAA/s from pre-dose (score <5) indicated some degree of sedation. An abnormal elevation in BP was defined as systolic BP ≥180 mmHg and ≥20 mmHg higher than baseline and/or diastolic BP ≥105 mmHg and ≥15 mmHg greater than baseline.
# This analysis included any treatment sessions in which patients received ESK (either open-label or blinded). The occurrence and severity of AEs were assessed within the following timeframes: Month 1 (Week 1 and Weeks 2-4), Month 2 (Weeks 5-8), Months 3-6 and Months 6-12. Severity of clinician-reported AEs were scored as 0 (no AE), 1 (mild), 2 (moderate), and 3 (severe). To examine AEs in individual patients over time, only patients who received at least one ESK dose in the following period were included in the analyses of each respective period. Thus, patient data were retained in (i) Week 1 if the patient received ≥1 ESK dose in Weeks 2-4, (ii) Weeks 2-4 if the patient received ≥1 ESK dose in Weeks 5-8, (iii) Weeks 5-8 if the patient received ≥1 ESK dose in Months 3-6, and (iv) Months 3-6 if the patient received ≥1 ESK dose in Months 6-12.
compound,measurement,setting,value
"CN[C@]1(c2ccccc2Cl)CCCCC1=O [esketamine, (S)-2-(2-chlorophenyl)-2-(methylamino)cyclohexanone]",Measured-based increased blood pressure,"Months 3-6, AE once in Week 1",6.3%
same,Measured-based increased blood pressure,"Months 3-6, AE twice in Week 1",33.3%
same,Measured-based increased blood pressure,"Months 3-6, No AE in Week 1",2.4%
same,Measured-based increased blood pressure,"Months 3-6, overall rate for timeframe",2.7%
same,Measured-based increased blood pressure,"Months 6-12, AE once in Week 1",6.3%
same,Measured-based increased blood pressure,"Months 6-12, AE twice in Week 1",0%
same,Measured-based increased blood pressure,"Months 6-12, No AE in Week 1",3.1%
same,Measured-based increased blood pressure,"Months 6-12, overall rate for timeframe",3.2%
same,Measured-based increased blood pressure,"Week 1, overall rate for timeframe",3.6%
same,Measured-based increased blood pressure,"Weeks 2-4, AE once in Week 1",35.7%
same,Measured-based increased blood pressure,"Weeks 2-4, AE twice in Week 1",80.0%
same,Measured-based increased blood pressure,"Weeks 2-4, No AE in Week 1",3.4%
same,Measured-based increased blood pressure,"Weeks 2-4, overall rate for timeframe",4.7%
same,Measured-based increased blood pressure,"Weeks 5-8, AE once in Week 1",17.9%
same,Measured-based increased blood pressure,"Weeks 5-8, AE twice in Week 1",60.0%
same,Measured-based increased blood pressure,"Weeks 5-8, No AE in Week 1",2.6%
same,Measured-based increased blood pressure,"Weeks 5-8, overall rate for timeframe",3.4%

# — US20240390295A1, “METHODS FOR TREATING DEPRESSION” (JANSSEN PHARMACEUTICA NV, priority 2020, published 2024)
